The subject of one data set is Pyrenophora teres. Nature of the data set: Pyrenophora teres / barley / leaf disc preventative (net blotch). Type of data set: in vivo. Particulars: 200 ppm, barley leaf segments cv. Hasso, 5-7 days after application. As for the experimental part:
Barley leaf segments cv. Hasso are placed on agar in a multiwell plate (24-well format) and sprayed with the formulated test compound diluted in water. The leaf segments are inoculated with a spore suspension of the fungus 2 days after application. The inoculated leaf segments are incubated at 20° C. and 65% rh under a light regime of 12 h light/12 h darkness in a climate cabinet and the activity of a compound is assessed as disease control compared to untreated when an appropriate level of disease damage appears in untreated check leaf segments (5-7 days after application).
As for `Cc1cccc2c1ncn2C1=NC(C)(C)C(C)(C)c2ccccc21` [Compound E-16], the “control of Pyrenophora teres” value is given as “at least 80%”.

Test system in the next data set: not given
Assay: not given
Details: not given
Compound `Cc1cccc2c1ncn2C1=NC(C)(C)C(F)(F)c2ccccc21` gave a melting point of 142 to 149 °C.
On the same count and under the same terms, with `Cc1cccc2c1ncn2C1=NC(C)(C)C(C)(C)c2c(F)cccc21` [Compound E-1] the figure was 45 to 46 °C.
Same read-out and setting: with `CC1(C)N=C(n2cnc3c(Br)cccc32)c2cccc(F)c2C1(C)C` [Compound E-4] the figure was 48 to 49 °C; with `Cc1cccc2c1ncn2C1=NC(C)(C)C(=O)c2ccccc21` [Compound E-10], 123 to 125 °C.
The same measure, in the same setting: with `CC(C)c1cccc2c1ncn2C1=NC(C)(C)C(C)(C)c2c(F)cccc21` [Compound E-12] the figure was 113 to 114 °C; with `C=Cc1cccc2c1ncn2C1=NC(C)(C)C(C)(C)c2c(F)cccc21` [Compound E-13], 70 to 71 °C.
In the case of `CCc1cccc2c1ncn2C1=NC(C)(C)C(C)(C)c2c(F)cccc21` [Compound E-14], the melting point fell in the range of 87 to 88 °C.
Same read-out and setting: with `CC1(C)N=C(n2cnc3c(Cl)cccc32)c2cccc(F)c2C1(C)C` [Compound E-17] the figure was 50 to 51 °C; with `COC(=O)c1cccc2c1ncn2C1=NC(C)(C)C(C)(C)c2c(F)cccc21` [Compound E-24], 178 to 179 °C.
On the same count and under the same terms, with `Cc1ccc2c(ncn2C2=NC(C)(C)C(=O)c3ccccc32)c1C` [Compound E-25] the figure was 159 to 161 °C; with `Cc1cccc2c1C(=O)C(C)(C)N=C2n1cnc2c(C)cccc21` [Compound E-26], 96 to 101 °C; with `Cc1cccc2c1C(=O)C(C)(C)N=C2n1cnc2c(C)c(C)ccc21` [Compound E-27], 145 to 149 °C.
Same read-out and setting: with `Cc1c(F)ccc2c1ncn2C1=NC(C)(C)C(F)(F)c2ccccc21` [Compound E-32] the figure was 118 to 121 °C; with `Cc1cccc2c1ncn2C1=NC(C)(C)C(=O)c2cc(Cl)ccc21` [Compound E-34], 129 to 133 °C; with `Cc1c(F)ccc2c1ncn2C1=NC(C)(C)C(=O)c2cc(Cl)ccc21` [Compound E-35], 133 to 136 °C.
`Cc1ccc2c(ncn2C2=NC(C)(C)C(=O)c3cc(Cl)ccc32)c1C` [Compound E-36] yielded a melting point of 196 to 199 °C.
Same read-out and setting: with `CC1(C)N=C(n2cnc3c(Cl)cccc32)c2ccc(Cl)cc2C1(F)F` [Compound E-37] the figure was 197 to 200 °C; with `Cc1cccc2c1ncn2C1=NC(C)(C)Cc2c(Br)cccc21` [Compound E-38], 52 to 54 °C; with `CC1(C)N=C(n2cnc3cc(Cl)c(Cl)cc32)c2cccc(F)c2C1(C)C` [Compound E-39], 126 to 127 °C.
Still for that read-out and setting: with `Cc1c(Br)ccc2c1ncn2C1=NC(C)(C)C(C)(C)c2c(F)cccc21` [Compound E-41] the figure was 122 to 124 °C.
Still for that read-out and setting: with `Cc1c(Cl)ccc2c1ncn2C1=NC(C)(C)C(C)(C)c2c(F)cccc21` [Compound E-42] the figure was 102 to 103 °C; with `Cc1cccc2c1ncn2C1=NC2(CCC2)Cc2ccccc21` [Compound E-43], 132 to 133 °C.
`Cc1cccc2c1ncn2C1=NC(C)(C)C(C)(C)c2c1ccc(Cl)c2F` [Compound E-45] registered a melting point of 147 to 151 °C.
The same measure, in the same setting: with `Cc1cccc2c1ncn2C1=NC(C)(C)C(C)(C)c2c1ccc(F)c2F` [Compound E-46] the figure was 122 to 125 °C; with `CC1(C)N=C(n2cnc3c(F)c(F)ccc32)c2cccc(F)c2C1(C)C` [Compound E-50], 112 to 114 °C.
The same measure, in the same setting: with `CC1(C)N=C(n2cnc3c4c(ccc32)CCC4)c2cccc(F)c2C1(C)C` [Compound E-51] the figure was 177 to 178 °C.
Still for that read-out and setting: with `Cc1ccc2c(ncn2C2=NC(C)(C)Cc3cc(F)ccc32)c1C` [Compound E-57] the figure was 143 to 145 °C; with `Cc1ccc2c(ncn2C2=NC3(CC3)C3(CC3)c3ccccc32)c1C` [Compound E-58], 141 to 143 °C; with `Cc1cccc2c1ncn2C1=NC(C)(C)C(C)(C)c2c(F)cccc21` [X.011], 118 to 120 °C.

A word on the melting point: it is the temperature of the solid-liquid transition.

The values above are taken from patent publication US10966425B2, “Fungicidal compositions” (SYNGENTA PARTICIPATIONS AG, priority 2016, dated 2021).
